Reference: PubChem BioAssay (NCI)
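Briefly, cells in 96-well plates were exposed to five compound concentrations for 48 h, and endpoints were estimated by linear interpolation. GI50 is the concentration that inhibits growth by half. TGI: total growth inhibition.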

What was measured:
Assay in all cases: NCI tumour cell line growth inhibition, 48 h
A498 renal = tested on: A498 renal
K-562 leukemia = tested on: K-562 leukemia
COLO 205 colon = tested on: COLO 205 colon
UO-31 renal = tested on: UO-31 renal
RXF 393 renal = tested on: RXF 393 renal
MOLT-4 leukemia = tested on: MOLT-4 leukemia
HOP-62 NSCLC = tested on: HOP-62 NSCLC
CCRF-CEM leukemia = tested on: CCRF-CEM leukemia
HS 578T breast = tested on: HS 578T breast
HOP-92 NSCLC = tested on: HOP-92 NSCLC
IGROV1 ovarian = tested on: IGROV1 ovarian
RPMI-8226 leukemia = tested on: RPMI-8226 leukemia
ACHN renal = tested on: ACHN renal
NCI-H226 lung = tested on: NCI-H226 lung
DU-145 prostate = tested on: DU-145 prostate
NCI-H522 lung = tested on: NCI-H522 lung
SR leukemia = tested on: SR leukemia
MCF7 breast = tested on: MCF7 breast
PC-3 prostate = tested on: PC-3 prostate
OVCAR-8 ovarian = tested on: OVCAR-8 ovarian
SN12C renal = tested on: SN12C renal
SNB-19 CNS = tested on: SNB-19 CNS
HCT-116 colon = tested on: HCT-116 colon
OVCAR-3 ovarian = tested on: OVCAR-3 ovarian
KM12 colon = tested on: KM12 colon
EKVX NSCLC = tested on: EKVX NSCLC
UACC-257 melanoma = tested on: UACC-257 melanoma
SK-MEL-5 melanoma = tested on: SK-MEL-5 melanoma
NCI/ADR-RES ovarian = tested on: NCI/ADR-RES ovarian
T-47D breast = tested on: T-47D breast
SF-539 CNS = tested on: SF-539 CNS
SK-MEL-2 melanoma = tested on: SK-MEL-2 melanoma
CAKI-1 renal = tested on: CAKI-1 renal
UACC-62 melanoma = tested on: UACC-62 melanoma
TK-10 renal = tested on: TK-10 renal
OVCAR-5 ovarian = tested on: OVCAR-5 ovarian
A549 NSCLC = tested on: A549 NSCLC
OVCAR-4 ovarian = tested on: OVCAR-4 ovarian
HCC-2998 colon = tested on: HCC-2998 colon
NCI-H460 lung = tested on: NCI-H460 lung
SF-295 CNS = tested on: SF-295 CNS
MALME-3M melanoma = tested on: MALME-3M melanoma
M14 melanoma = tested on: M14 melanoma
SF-268 CNS = tested on: SF-268 CNS
SNB-75 CNS = tested on: SNB-75 CNS
MDA-MB-435 = tested on: MDA-MB-435
HL-60(TB) leukemia = tested on: HL-60(TB) leukemia
LOX IMVI melanoma = tested on: LOX IMVI melanoma
HCT-15 colon = tested on: HCT-15 colon
NCI-H23 lung = tested on: NCI-H23 lung
MDA-MB-231 breast = tested on: MDA-MB-231 breast
786-0 renal = tested on: 786-0 renal
HT29 colon = tested on: HT29 colon
SK-MEL-28 melanoma = tested on: SK-MEL-28 melanoma
U251 CNS = tested on: U251 CNS
SW-620 colon = tested on: SW-620 colon

COc1cc2c3c(n(CCCn4ccnc4)c(=O)c2cc1OC)-c1cc2c(cc1C3=O)OCO2
GI50 (A498 renal): 20.3 nM | TGI (A498 renal): 87.8 nM | GI50 (K-562 leukemia): 12.2 nM | GI50 (COLO 205 colon): 312 nM | TGI (COLO 205 colon): > 100000 nM | GI50 (UO-31 renal): < 26.9 nM | TGI (UO-31 renal): > 48300 nM | GI50 (RXF 393 renal): > 100000 nM | TGI (RXF 393 renal): > 100000 nM | GI50 (MOLT-4 leukemia): < 10 nM | TGI (MOLT-4 leukemia): < 10 nM | GI50 (HOP-62 NSCLC): < 10 nM | TGI (HOP-62 NSCLC): 153 nM | GI50 (CCRF-CEM leukemia): < 10 nM | TGI (CCRF-CEM leukemia): < 10 nM | GI50 (HS 578T breast): > 100000 nM | TGI (HS 578T breast): > 100000 nM | TGI (HOP-92 NSCLC): > 100000 nM | GI50 (IGROV1 ovarian): 959 nM | TGI (IGROV1 ovarian): > 100000 nM | GI50 (RPMI-8226 leukemia): < 10 nM | TGI (RPMI-8226 leukemia): 153 nM | GI50 (ACHN renal): < 10 nM | TGI (ACHN renal): > 100000 nM | GI50 (NCI-H226 lung): < 13.5 nM | TGI (NCI-H226 lung): 160 nM | GI50 (DU-145 prostate): < 10 nM | TGI (DU-145 prostate): > 100000 nM | GI50 (NCI-H522 lung): 369 nM | TGI (NCI-H522 lung): > 100000 nM | GI50 (SR leukemia): < 10 nM | TGI (SR leukemia): < 10 nM | GI50 (MCF7 breast): < 12.9 nM | TGI (MCF7 breast): > 100000 nM | GI50 (PC-3 prostate): 1280 nM | TGI (PC-3 prostate): > 100000 nM | GI50 (OVCAR-8 ovarian): 280 nM | TGI (OVCAR-8 ovarian): > 100000 nM | GI50 (SN12C renal): < 10 nM | TGI (SN12C renal): 182 nM | GI50 (SNB-19 CNS): 35.8 nM | TGI (SNB-19 CNS): > 100000 nM | GI50 (HCT-116 colon): < 10 nM | TGI (HCT-116 colon): 148 nM | GI50 (OVCAR-3 ovarian): 79.5 nM | TGI (OVCAR-3 ovarian): 804 nM | GI50 (KM12 colon): 142 nM | TGI (KM12 colon): 9320 nM | GI50 (EKVX NSCLC): 1100 nM | TGI (EKVX NSCLC): > 20900 nM | GI50 (UACC-257 melanoma): 1200 nM | TGI (UACC-257 melanoma): 26800 nM | GI50 (SK-MEL-5 melanoma): 18.5 nM | TGI (SK-MEL-5 melanoma): 133 nM | GI50 (NCI/ADR-RES ovarian): 28.5 nM | TGI (NCI/ADR-RES ovarian): 3590 nM | GI50 (T-47D breast): < 10 nM | TGI (T-47D breast): < 10 nM | GI50 (SF-539 CNS): < 19.3 nM | GI50 (SK-MEL-2 melanoma): > 100000 nM | TGI (SK-MEL-2 melanoma): > 100000 nM | GI50 (CAKI-1 renal): < 10 nM | TGI (CAKI-1 renal): 27 nM | GI50 (UACC-62 melanoma): < 10 nM | TGI (UACC-62 melanoma): 93.7 nM | GI50 (TK-10 renal): 2220 nM | TGI (TK-10 renal): > 100000 nM | GI50 (OVCAR-5 ovarian): 141 nM | TGI (OVCAR-5 ovarian): 8330 nM | GI50 (A549 NSCLC): 52.8 nM | TGI (A549 NSCLC): > 100000 nM | GI50 (OVCAR-4 ovarian): 2900 nM | TGI (OVCAR-4 ovarian): > 100000 nM | GI50 (HCC-2998 colon): < 10 nM | TGI (HCC-2998 colon): 34.5 nM | GI50 (NCI-H460 lung): < 10 nM | TGI (NCI-H460 lung): > 21700 nM | GI50 (SF-295 CNS): < 10 nM | TGI (SF-295 CNS): 1210 nM | GI50 (MALME-3M melanoma): 791 nM | TGI (MALME-3M melanoma): > 31500 nM | GI50 (M14 melanoma): < 10 nM | TGI (M14 melanoma): 100 nM | GI50 (SF-268 CNS): < 10 nM | TGI (SF-268 CNS): > 100000 nM | GI50 (SNB-75 CNS): 34.5 nM | TGI (SNB-75 CNS): > 100000 nM | GI50 (MDA-MB-435): 72.8 nM | TGI (MDA-MB-435): 1670 nM | GI50 (HL-60(TB) leukemia): < 10 nM | TGI (HL-60(TB) leukemia): < 19.5 nM | GI50 (LOX IMVI melanoma): < 10 nM | TGI (LOX IMVI melanoma): 171 nM | GI50 (HCT-15 colon): 824 nM | TGI (HCT-15 colon): > 100000 nM | GI50 (NCI-H23 lung): 16.2 nM | TGI (NCI-H23 lung): 164 nM | GI50 (MDA-MB-231 breast): 347 nM | TGI (MDA-MB-231 breast): 3570 nM | GI50 (786-0 renal): < 10 nM | TGI (786-0 renal): 91.7 nM | GI50 (HT29 colon): 94.8 nM | TGI (HT29 colon): > 100000 nM | GI50 (SK-MEL-28 melanoma): > 100000 nM | TGI (SK-MEL-28 melanoma): > 100000 nM | GI50 (U251 CNS): < 10 nM | TGI (U251 CNS): 1030 nM | GI50 (SW-620 colon): < 10.9 nM | TGI (SW-620 colon): > 100000 nM
